# Laboratory results as given in US20250228756A1, “Anhydrous Urea Emulsions with a Retinoid Agent” (Baek Clinical Inc., priority 2021, published 2025).
# Like-named read-outs stand apart in the source and are kept apart here.
# How the values were obtained:
# [1] = Assessment of formulation components: solubility in non-aqueous solvents; type: physicochemical
# Method: A series of experiments were performed to assess and optimize the components of the subject formulations. AA refers to L-ascorbic acid. U refers to urea. % values are wt %.
# Additional ingredients were chosen for their compatibility with (e.g., miscibility in) 1,3 propanediol, 1,2 propanediol, and 1,3 butanediol.
# [2] = in most solvents; cited from earlier work
# skin [3] = conditions: cited from earlier work
# skin [4] = conditions: concentrations of 0.2%; clinical data from SEPPIC; cited from earlier work
compound,measurement,setting,value
"O=C(O)CCCCCCCC(=O)O [AzA, Azelaic acid, reference compound]",change of solubility by the presence of hydroxyethyl urea,"[1]; in 1,3 propanediol",slightly increased
same,concentration that can be solubilized,"[1]; in 1,3 propanediol",up to 10%
same,concentration that is possible to solubilize,"[1]; with 10% AA, 5% U in a 1,3 propanediol base",7.5%
same,solubility,[2],very poorly soluble
CC(C)(CO)[C@@H](O)C(=O)NCCCO [Panthenol],concentration at which inhibition of transepidermal water loss is apparent,skin [3],≥ 1%
COc1cc(CC(C(C)=O)C(C)=O)ccc1O [Acetyl zingerone],solubility,"[1]; in 1,3 propanediol, 1,2 propanediol and 1,3 butanediol at the desired concentrations (0.5-1%)",readily soluble
Madecassoside,solubility,"[1]; at a concentration of 0.2% in 1,3 propanediol, 1,2 propanediol and 1,3 butanediol",soluble
same,ability to reduce erythema (skin redness),skin [4],desirable ability to reduce erythema
NC(N)=O [urea],ability of solvent to solubilize urea,"[1]; solvent 1,2-hexanediol",moderate
same,ability of solvent to solubilize urea,"[1]; solvent 1,2-propanediol (propylene glycol)",moderate
same,ability of solvent to solubilize urea,"[1]; solvent 1,3-butanediol (butylene glycol)",moderate
same,ability of solvent to solubilize urea,"[1]; solvent 1,3-propanediol",moderate
same,ability of solvent to solubilize urea,"[1]; solvent 1,5-pentanediol, otherwise referred to as pentylene glycol",moderate
same,ability of solvent to solubilize urea,[1]; solvent dimethyl isosorbide,very limited
same,ability of solvent to solubilize urea,[1]; solvents glycerin and diglycerin,moderate
"CC1(C)[C@@H](O[C@H]2O[C@H](C(=O)O)[C@@H](O)[C@H](O)[C@H]2O[C@@H]2O[C@H](C(=O)O)[C@@H](O)[C@H](O)[C@H]2O)CC[C@]2(C)[C@H]3C(=O)C=C4[C@@H]5C[C@@](C)(C(=O)O)CC[C@]5(C)CC[C@@]4(C)[C@]3(C)CC[C@@H]12 [glycyrrhizic acid, Glycyrrhizic acid]",solubility,"[1]; in 1,3-propanediol",shows solubility
